Like-named read-outs stand apart in the source and are kept apart here.
Key:
[1] = tested on: Platelet aggregation (response to collagen); experiment: Platelet aggregation inhibition activity: response to intravenous collagen in mice; assay type: in vivo; settings: two hours before collagen 400 μg/kg i.v.
Description: Male CFLP mice (ca 20 g, n=8) were dosed orally with compound or vehicle (controls) after an overnight fast. Two hours later each mouse received an intravenous dose of collagen (400 μg/kg, pH 6-6.6). Exactly 30 sec. after injection of collagen, each mouse was placed in a chamber of CO2 until respiration ceased. […] Each concentration was expressed as a percent of that obtained in a tail blood sample taken immediately before injection of collagen.

Female CFLP mice [2] = experiment: Effect on energy expenditure and food intake of mice; assay type: in vivo; settings: Mus musculus, % of mice dosed with water; for response vs control in vivo at 22.9 mg/kg: 22.9 mg/kg po; for response vs control in vivo at 20 mg/kg: 20.0 mg/kg po; for response vs control in vivo at 23.3 mg/kg: 23.3 mg/kg po; for response vs control in vivo at 24.9 mg/kg: 24.9 mg/kg po; for response vs control in vivo at 20.2 mg/kg: 20.2 mg/kg po; for response vs control in vivo at 19.1 mg/kg: 19.1 mg/kg po; for response vs control in vivo at 20.3 mg/kg: 20.3 mg/kg po; for response vs control in vivo at 22.1 mg/kg: 22.1 mg/kg po; for response vs control in vivo at 5.7 mg/kg: 5.7 mg/kg po
Description: Female CFLP mice each weighing approximately 24 g were given food and water ad lib before and during the experiment. The compounds were dissolved in water by addition of one mole of hydrochloric acid per mole of compound and these solutions were administered orally to each of 12 mice. A further 12 mice were dosed orally with water. The mice were placed in boxes through which air was drawn and the oxygen content of the air leaving the boxes was measured. The energy expenditure of the mice was calculated for 21 hours after dosing from the volume of air leaving the boxes and its oxygen content following the principles described by J. B. de V. Weir, J. Physiol. […] The food intake of the mice was measured over this same period of 21 hours. The results are expressed as a percentage of the mean food intake or rate of energy expenditure of the mice dosed with water.

Rat hearts = experiment: Cardiac activity: rat hearts perfused by the Langendorff procedure
Description: Rat hearts were perfused by the Langendorff procedure.
Hearts were dissected free within 30 seconds of death and reverse perfused via the aorta and coronary vessels with Krebs-Ringer bicarbonate solution (pH 7.4, 37° C.) gassed with 95% oxygen: 5% carbon dioxide at a flow rate between 8-12 cm^3 /minute. Responses were observed after injection of drug dissolved in isotonic saline into the perfusion media.
Results are expressed as a percentage of the maximum response due to salbutamol.

Female CFLP mice [3] = experiment: Hypoglycaemic activity: blood glucose of fasted mice after subcutaneous glucose; assay type: in vivo; settings: Mus musculus, read-out: REDUCTION IN AREA UNDER BLOOD GLUCOSE CURVE (%); for inhibition in vivo at 1 µmol/kg: 1.0 μ mol/kg oral
Description: Female CFLP mice, weighing approximately 25 g, were fasted for 24 hours prior to the study. The compounds under study were administered orally as an aqueous solution to each of 8 mice. 30 minutes later a blood sample ([…]) was obtained from the tail for the analysis of blood glucose. Immediately after taking this blood sample, glucose (1 g/kg body weight) was administered subcutaneously to each mouse. 8 mice were given water as a control. Blood samples were then obtained from each mouse at 30 minute intervals for 120 minutes.
Compounds that produced a significant (P<0.05) reduction on blood glucose, compared with control mice given water, at any time interval, were considered active. The area under the blood glucose curve over the 2 hour period after the administration of the glucose was calculated for each compound and compared with the value for control animals.

[4] = 0-3h, read-out: MEAN ENERGY EXPENDITURE (%) 0-3h
[5] = 0-21h, read-out: MEAN ENERGY EXPENDITURE (%) 0-21h
[6] = over 21 hours, read-out: MEAN FOOD INTAKE (%)
[7] = 30 μg added to perfusate, percentage of the maximum response due to salbutamol, read-out: HEART TENSION
[8] = 30 μg added to perfusate, percentage of the maximum response due to salbutamol, read-out: HEART RATE
[9] = 2.5 μ mol/kg oral, 2 hour period after glucose, vs control mice given water
[10] = 2 hour period after glucose, vs control mice given water

## CC(=O)Oc1ccccc1C(=O)O [Aspirin, reference compound]
[1]; 600 μ mol/kg po
  % INHIBITION OF RESPONSE TO COLLAGEN: 47%

## CC(Cc1ccc(OCCCCO)cc1)NCC(O)c1cccc(C(F)(F)F)c1 (centres unmarked) [Example 2, N-[2-(4-(4-hydroxybutoxy)phenyl)-1-methylethyl]-2-hydroxy-2-(3-trifluoromethylphenyl)ethanamine]
Female CFLP mice [2]; [4]
  response vs control in vivo at 22.9 mg/kg: 168%
Female CFLP mice [2]; [5]
  response vs control in vivo at 22.9 mg/kg: 135%
Female CFLP mice [2]; [6]
  response vs control in vivo at 22.9 mg/kg: 89%
Rat hearts; [7]
  Emax: 22%
Rat hearts; read-out: HEART RATE
  Emax: 0%
Female CFLP mice [3]; 2.4 μ mol/kg oral, 2 hour period after glucose, vs control mice given water
  inhibition in vivo at 2.4 µmol/kg: 57%
[1]; 1 μ mol/kg po
  % INHIBITION OF RESPONSE TO COLLAGEN: 26%

## CC(Cc1ccc(OCCO)cc1)NCC(O)c1cccc(C(F)(F)F)c1 (centres unmarked) [Example 3, N-[2-(4-(2-Hydroxyethoxy)-phenyl)-1-methylethyl]-2-hydroxy-2-(3-trifluoromethylphenyl)ethanamine]
Female CFLP mice [2]; [4]
  response vs control in vivo at 20 mg/kg: 178%
Female CFLP mice [2]; [5]
  response vs control in vivo at 20 mg/kg: 134%
Female CFLP mice [2]; [6]
  response vs control in vivo at 20 mg/kg: 82%
Rat hearts; [8]
  Emax: 17%
Rat hearts; [7]
  Emax: 50%
Female CFLP mice [3]; [9]
  inhibition in vivo at 2.5 µmol/kg: 52%
[1]; 1 μ mol/kg po
  % INHIBITION OF RESPONSE TO COLLAGEN: 47%

## CC(Cc1ccc(OCCCCCCCCCCCO)cc1)NCC(O)c1cccc(C(F)(F)F)c1 (centres unmarked) [Example 6, N-[2-(4-(11-Hydroxyundecyloxy)phenyl)1-methylethyl]-2-hydroxy-2-(3-trifluoromethylphenyl)-ethanamine]
Female CFLP mice [2]; [4]
  response vs control in vivo at 23.3 mg/kg: 132%
Female CFLP mice [2]; [5]
  response vs control in vivo at 23.3 mg/kg: 101%
Female CFLP mice [2]; [6]
  response vs control in vivo at 23.3 mg/kg: 99%
Rat hearts; [8]
  Emax: 0%
Rat hearts; [7]
  Emax: 36%
Female CFLP mice [3]; [9]
  inhibition in vivo at 2.5 µmol/kg: 24%

## CC(Cc1ccc(OC(C)(C)CO)cc1)NCC(O)c1cccc(C(F)(F)F)c1 (centres unmarked) [Example 7, N-[2-(4-(1,1-Dimethyl-2-hydroxyethoxy)phenyl)-1-methylethyl]-2-hydroxy-2-(3-trifluoromethylphenyl)-ethanamine]
Female CFLP mice [2]; [4]
  response vs control in vivo at 24.9 mg/kg: 145%
Female CFLP mice [2]; [5]
  response vs control in vivo at 24.9 mg/kg: 118%
Female CFLP mice [2]; [6]
  response vs control in vivo at 24.9 mg/kg: 116%
Rat hearts; [8]
  Emax: 46%
Rat hearts; [7]
  Emax: 29%
Female CFLP mice [3]; po, 2 h
  inhibition in vivo at 2.5 µmol/kg: 45%

## COc1ccc(C(O)CNC(C)Cc2ccc(OCCO)cc2)cc1F (centres unmarked) [Example 8, N-[2-(4-(2-Hydroxyethoxy)phenyl)-1-methylethyl]-2-hydroxy-2-(3-fluoro-4-methoxyphenyl)-ethanamine]
Female CFLP mice [2]; [4]
  response vs control in vivo at 20.2 mg/kg: 138%
Female CFLP mice [2]; [5]
  response vs control in vivo at 20.2 mg/kg: 96%
Female CFLP mice [2]; [6]
  response vs control in vivo at 20.2 mg/kg: 86%
Rat hearts; [8]
  Emax: 13%
Rat hearts; [7]
  Emax: 13%
Female CFLP mice [3]; 12.5 μ mol/kg oral, 2 hour period after glucose, vs control mice given water
  inhibition in vivo at 12.5 µmol/kg: 21%

## CC(C)(CCc1ccc(OCCO)cc1)NCC(O)c1ccccc1 (centres unmarked) [Example 9, N-[3-[4-(2-Hydroxyethoxy)phenyl]-1,1-dimethylpropyl]-2-hydroxy-2-phenylethanamine]
Female CFLP mice [2]; [4]
  response vs control in vivo at 19.1 mg/kg: 102%
Female CFLP mice [2]; [5]
  response vs control in vivo at 19.1 mg/kg: 98%
Female CFLP mice [2]; [6]
  response vs control in vivo at 19.1 mg/kg: 91%
Female CFLP mice [3]; 50.0 μ mol/kg oral, 2 hour period after glucose, vs control mice given water
  inhibition in vivo at 50 µmol/kg: 55%

## CC(CCc1ccc(OCCO)cc1)NCC(O)c1cccc(Cl)c1 (centres unmarked) [Example 10, N-[3-(4-(2-Hydroxyethoxy)phenyl)-1-methylpropyl]-2-hydroxy-2-(3-chlorophenyl)ethanamine]
Female CFLP mice [2]; [4]
  response vs control in vivo at 20.3 mg/kg: 159%
Female CFLP mice [2]; [5]
  response vs control in vivo at 20.3 mg/kg: 114%
Female CFLP mice [2]; [6]
  response vs control in vivo at 20.3 mg/kg: 88%
Female CFLP mice [3]; [9]
  inhibition in vivo at 2.5 µmol/kg: 23%

## Cc1cc(CC(C)NCC(O)c2cccc(C(F)(F)F)c2)ccc1OCCO (centres unmarked) [Example 11, N-[2-{4-(2-Hydroxyethoxy)-3-methylphenyl}-1-methylethyl]-2-hydroxy-2-(3-trifluoromethylphenyl)ethanamine]
Female CFLP mice [2]; [4]
  response vs control in vivo at 22.1 mg/kg: 136%
Female CFLP mice [2]; [5]
  response vs control in vivo at 22.1 mg/kg: 113%
Female CFLP mice [2]; [6]
  response vs control in vivo at 22.1 mg/kg: 115%
Female CFLP mice [3]; [10]
  inhibition in vivo at 1 µmol/kg: 31%

## C[C@H](Cc1ccc(OCCCCO)cc1)NC[C@H](O)c1cccc(C(F)(F)F)c1 [Example 13, N-[2-{4-(4-Hydroxybutoxy)phenyl}-1-(R)-1-methylethyl]-2-(R)-2-hydroxy-2-(3-trifluoromethylphenyl)ethanamine]
Female CFLP mice [2]; [4]
  response vs control in vivo at 5.7 mg/kg: 134%
Female CFLP mice [2]; [5]
  response vs control in vivo at 5.7 mg/kg: 116%
Female CFLP mice [2]; [6]
  response vs control in vivo at 5.7 mg/kg: 93%
Rat hearts; [8]
  Emax: 17%
Rat hearts; [7]
  Emax: 47%
Female CFLP mice [3]; [10]
  inhibition in vivo at 1 µmol/kg: 37%

## CC(C)(C)NCC(O)c1ccc(O)c(CO)c1 (centres unmarked) [Salbutamol, reference compound]
Rat hearts; salbutamol maximum response (reference), dose not stated, read-out: HEART RATE
  Emax: 100%
Rat hearts; salbutamol maximum response (reference), dose not stated, read-out: HEART TENSION
  Emax: 100%
